From ChEMBL document CHEMBL2062430, “Set-up of a new series of HDAC inhibitors: the 5,11-dihydrodibenzo[b,e]azepin-6-ones as privileged structures” (Bioorg Med Chem Lett, 2012)
pIC50: −log10 of the molar value.

Legend:
[1] = biological target: T1, Histone deacetylase (Homo sapiens) (UniProt Q13547+O15379+Q9UBN7+Q92769+Q9UQL6+Q8WUI4+Q9BY41+Q96DB2+P56524+Q9UKV0+Q969S8); details: HeLa, at 1 µM
Description: Inhibition of HDAC in human HeLa cell extracts using Fluor de Lys as substrate at 1 uM by fluorescence assay

[2] = biological target: T1, Histone deacetylase (Homo sapiens); details: HeLa, at 0.1 µM
Description: Inhibition of HDAC in human HeLa cell extracts using Fluor de Lys as substrate at 0.1 uM by fluorescence assay

[3] = biological target: T1, Histone deacetylase (Homo sapiens); details: HeLa, at 0.01 µM
Description: Inhibition of HDAC in human HeLa cell extracts using Fluor de Lys as substrate at 0.01 uM by fluorescence assay

HCT-116 = assay: Antiproliferative activity against human HCT116 cells after 5 days by Alamar Blue assay; type: functional, cell-based; details: HCT-116, 120 h
Histone deacetylase = assay: Inhibition of HDAC in human HeLa cell extracts using Fluor de Lys as substrate by fluorescence assay; type: protein assay

Structure (SMILES)	inhibition [1] [%]	inhibition [2] [%]	inhibition [3] [%]	pIC50 (HCT-116)	IC50 (Histone deacetylase) [nM]
COC1(OC)c2ccccc2C(=O)N(CCCCCC(=O)NO)c2ccccc21	42	< 20	< 20	–	–
O=C(CCCCCn1c(=O)c2ccccc2c(=O)c2ccccc21)NO	77	47	11	< 6.00	153
O=C(CCCCCN1C(=O)c2ccccc2C(F)c2ccccc21)NO (centres undefined)	84	62	< 20	5.80	53
O=C(CCCCCN1C(=O)c2ccccc2C(F)(F)c2ccccc21)NO	78	50	< 20	6.22	111
O=C(CCCCCN1C(=O)c2ccccc2C(O)c2ccccc21)NO (centres undefined)	81	58	21	5.70	60

Results, then the molecule that gave them:

inhibition [1] [%]	inhibition [2] [%]	inhibition [3] [%]	pIC50 (HCT-116)	IC50 (Histone deacetylase) [nM]	Structure (SMILES)
84	67	21	6.15	42	O=C(CCCCCN1C(=O)c2ccccc2Cc2ccccc21)NO
< 20	< 20	< 20	–	–	O=C(CCCN1C(=O)c2ccccc2Cc2ccccc21)NO
29	< 20	< 20	–	–	O=C(CCCCN1C(=O)c2ccccc2Cc2ccccc21)NO
